The values that follow come from ChEMBL document CHEMBL4350982, “Multi-target design strategies for the improved treatment of Alzheimer's disease” (Eur J Med Chem, 2019).

pIC50: −log10 of the molar value. Bounds are passed on as bounds.

Data set [1] deals with Glutamate [NMDA] receptor. Briefly: Inhibition of NMDA receptor (unknown origin). It counts as protein-complex assay, Homo sapiens.
In data set [2] the target is T1, Acetylcholinesterase (Homo sapiens, UniProt P22303). Briefly: Inhibition of AChE (unknown origin).
Data set [3] deals with Amyloid-beta precursor protein (Homo sapiens) (UniProt P05067). Kind of data set: Inhibition of beta amyloid (unknown origin) self-induced aggregation relative to control. As to conditions: concentration not given here.
Data set [4] is described as follows: Oral bioavailability in Alzheimer's disease patient at 2 mg/ml. Type of data set: ADME, organism-based. To be noted: human, in vivo.
Data set [5] is described as follows: Half life in Alzheimer's disease patient at 2 mg/ml, po. Type of data set: ADME. As to conditions: human, in vivo.
Data set [6] can be described thus: Drug excretion in Alzheimer's disease patient urine at 2 mg/ml, po. Type of data set: ADME, tissue-based. As to conditions: human, read-out: Drug excretion.
Data set [7] addresses T2, Acetylcholinesterase (Electrophorus electricus, UniProt O42275). Briefly: Inhibition of electric eel AChE using acetylthiocholine as substrate measured for 3.2 mins by Ellman's method.
Data set [8] addresses T3, Acetylcholinesterase (Rattus norvegicus, UniProt P37136).
T3 sequence (P37136 whole entry): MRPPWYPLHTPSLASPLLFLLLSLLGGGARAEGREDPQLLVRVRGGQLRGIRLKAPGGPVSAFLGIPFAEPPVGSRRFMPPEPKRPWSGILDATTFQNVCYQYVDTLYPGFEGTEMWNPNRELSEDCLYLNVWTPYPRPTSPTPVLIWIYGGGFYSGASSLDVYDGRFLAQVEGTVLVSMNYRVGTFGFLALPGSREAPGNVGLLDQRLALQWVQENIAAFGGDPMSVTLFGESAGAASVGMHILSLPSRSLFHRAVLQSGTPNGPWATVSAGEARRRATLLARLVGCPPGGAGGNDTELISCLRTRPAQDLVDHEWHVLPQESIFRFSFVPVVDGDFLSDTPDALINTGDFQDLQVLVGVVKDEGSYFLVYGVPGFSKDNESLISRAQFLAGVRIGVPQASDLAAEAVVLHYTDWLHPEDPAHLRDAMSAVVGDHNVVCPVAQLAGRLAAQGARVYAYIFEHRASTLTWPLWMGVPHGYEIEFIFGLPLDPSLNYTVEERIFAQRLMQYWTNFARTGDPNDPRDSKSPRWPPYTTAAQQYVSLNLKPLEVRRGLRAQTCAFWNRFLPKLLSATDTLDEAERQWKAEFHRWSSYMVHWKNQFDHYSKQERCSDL
Kind of data set: Inhibition of AChE from rat cortex by Ellman's method.

The target of data set [9] is T1, Acetylcholinesterase. Kind of data set: Inhibition of recombinant human AChE using acetylthiocholine as substrate by UV-visible absorption method.
Data set [10] deals with T4, Beta-secretase 1 (Homo sapiens, UniProt P56817). Kind of data set: Inhibition of BACE-1 (unknown origin) after 60 mins by FRET assay.
For a further data set, the target named is Cholinesterase (Equus caballus, UniProt P81908). Kind of data set: Inhibition of equine serum BChE using butyrylthiocholine iodide as substrate preincubated for 10 mins followed by substrate addition by Ellman's method.
Data set [11] concerns the target Glutamate [NMDA] receptor. Briefly: Displacement of [3H]-MK-801 from NMDA receptor (unknown origin) by scintillation counting method. Type of data set: protein-complex assay, Homo sapiens.
The target in data set [12] is Glutamate [NMDA] receptor. Briefly: Displacement of [3H]-ifenprodil from NMDA receptor (unknown origin) by scintillation counting method. It counts as protein-complex assay, Homo sapiens.
The target in data set [13] is Amyloid-beta precursor protein (Homo sapiens) (UniProt P05067). Kind of data set: Inhibition of beta amyloid (unknown origin) self-induced aggregation at 10 uM relative to control.
Data set [14] deals with T4, Beta-secretase 1. Briefly: Inhibition of BACE-1 (unknown origin).
Data set [15] has as its target T5, Amine oxidase [flavin-containing] A (Homo sapiens, UniProt P21397).
T5 sequence (P21397 whole entry): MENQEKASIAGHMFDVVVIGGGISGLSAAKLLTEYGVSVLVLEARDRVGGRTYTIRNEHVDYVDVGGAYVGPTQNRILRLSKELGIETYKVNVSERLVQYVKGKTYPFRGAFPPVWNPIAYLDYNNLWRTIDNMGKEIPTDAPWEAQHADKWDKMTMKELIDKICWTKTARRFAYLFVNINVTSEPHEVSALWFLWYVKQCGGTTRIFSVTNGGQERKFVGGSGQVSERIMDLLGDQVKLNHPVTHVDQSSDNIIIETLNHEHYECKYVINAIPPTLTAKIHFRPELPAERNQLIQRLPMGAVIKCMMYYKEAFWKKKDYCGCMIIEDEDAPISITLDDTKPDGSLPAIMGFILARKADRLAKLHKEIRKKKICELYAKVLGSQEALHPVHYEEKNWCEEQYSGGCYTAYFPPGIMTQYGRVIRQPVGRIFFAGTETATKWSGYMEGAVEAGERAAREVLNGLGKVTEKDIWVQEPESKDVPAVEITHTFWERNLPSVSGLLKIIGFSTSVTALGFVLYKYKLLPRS
Briefly: Mixed type inhibition of MAOA (unknown origin).

Data set [16] deals with T6, Amine oxidase [flavin-containing] B (Homo sapiens, UniProt P27338).
T6 sequence (P27338 whole entry): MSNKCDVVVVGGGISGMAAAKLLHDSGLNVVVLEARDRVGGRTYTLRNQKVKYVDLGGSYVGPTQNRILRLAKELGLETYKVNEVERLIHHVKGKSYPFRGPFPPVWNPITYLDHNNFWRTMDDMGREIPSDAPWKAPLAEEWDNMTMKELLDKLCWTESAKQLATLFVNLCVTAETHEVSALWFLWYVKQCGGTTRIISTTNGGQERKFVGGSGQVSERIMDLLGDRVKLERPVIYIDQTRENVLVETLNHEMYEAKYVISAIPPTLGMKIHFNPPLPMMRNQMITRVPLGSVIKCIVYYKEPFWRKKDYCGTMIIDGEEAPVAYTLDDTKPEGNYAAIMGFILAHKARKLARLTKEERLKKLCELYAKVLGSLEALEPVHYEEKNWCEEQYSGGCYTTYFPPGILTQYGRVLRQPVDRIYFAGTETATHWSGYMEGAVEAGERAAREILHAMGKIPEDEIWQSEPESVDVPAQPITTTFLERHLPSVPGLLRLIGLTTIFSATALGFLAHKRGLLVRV
Kind of data set: Mixed type inhibition of MAOB (unknown origin).

Data set [17] deals with T1, Acetylcholinesterase. Kind of data set: Irreversible inhibition of AChE (unknown origin).
The target of data set [18] is T4, Beta-secretase 1. Kind of data set: Irreversible inhibition of BACE-1 (unknown origin).
The target in data set [19] is T5, Amine oxidase [flavin-containing] A. Kind of data set: Irreversible inhibition of MAOA (unknown origin).
Data set [20] has as its target T6, Amine oxidase [flavin-containing] B. Kind of data set: Irreversible inhibition of MAOB (unknown origin).
In data set [21] the target is T1, Acetylcholinesterase. Kind of data set: Inhibition of recombinant human AChE.
The target of data set [22] is T4, Beta-secretase 1. Kind of data set: Inhibition of recombinant human BACE-1.
The test system of another data set is CHO-K1. Kind of data set: Cytotoxicity against CHOK1 cells assessed as reduction in cell viability by MTT assay. Type of data set: cell-based. To be noted: Cricetulus griseus.
In another data set the test system is HepG2. Briefly: Cytotoxicity against human HepG2 cells assessed as reduction in cell viability by MTT assay. Type of data set: cell-based.
Another data set has as its target Butyrylcholinesterase (Rattus norvegicus, UniProt Q9JKC1). Kind of data set: Inhibition of BuChE from rat serum by Ellman's method.
The target of data set [23] is cGMP-specific 3',5'-cyclic phosphodiesterase (Homo sapiens, UniProt O76074). Kind of data set: Inhibition of PDE5A1 (unknown origin) by immobilized metal ion affinity-based fluorescence polarization.
Data set [24] has as its target cGMP-dependent 3',5'-cyclic phosphodiesterase (Homo sapiens, UniProt O00408). Kind of data set: Inhibition of PDE2A1 (unknown origin) by immobilized metal ion affinity-based fluorescence polarization.
Data set [25] has as its target cGMP-inhibited 3',5'-cyclic phosphodiesterase 3A (Homo sapiens, UniProt Q14432). Kind of data set: Inhibition of PDE3A (unknown origin) by immobilized metal ion affinity-based fluorescence polarization.
Data set [26] addresses Cone cGMP-specific 3',5'-cyclic phosphodiesterase subunit alpha' (Homo sapiens, UniProt P51160). Briefly: Inhibition of PDE6C (unknown origin) by immobilized metal ion affinity-based fluorescence polarization.
Data set [27] deals with High affinity 3',5'-cyclic-AMP phosphodiesterase 7A (Homo sapiens, UniProt Q13946). Kind of data set: Inhibition of PDE7A (unknown origin) by immobilized metal ion affinity-based fluorescence polarization.
For data set [28], the target named is High affinity cGMP-specific 3',5'-cyclic phosphodiesterase 9A (Homo sapiens, UniProt O76083). Briefly: Inhibition of PDE9A2 (unknown origin) by immobilized metal ion affinity-based fluorescence polarization.
Data set [29] can be described thus: Inhibition of PDE4D3 (unknown origin) by immobilized metal ion affinity-based fluorescence polarization. Set-up: species or system Homo sapiens.
Data set [30] addresses T2, Acetylcholinesterase. Kind of data set: Inhibition of electric eel AChE using acetylthiocholine chloride as substrate preincubated for 15 mins followed by substrate addition.

T4 sequence (P56817 whole entry): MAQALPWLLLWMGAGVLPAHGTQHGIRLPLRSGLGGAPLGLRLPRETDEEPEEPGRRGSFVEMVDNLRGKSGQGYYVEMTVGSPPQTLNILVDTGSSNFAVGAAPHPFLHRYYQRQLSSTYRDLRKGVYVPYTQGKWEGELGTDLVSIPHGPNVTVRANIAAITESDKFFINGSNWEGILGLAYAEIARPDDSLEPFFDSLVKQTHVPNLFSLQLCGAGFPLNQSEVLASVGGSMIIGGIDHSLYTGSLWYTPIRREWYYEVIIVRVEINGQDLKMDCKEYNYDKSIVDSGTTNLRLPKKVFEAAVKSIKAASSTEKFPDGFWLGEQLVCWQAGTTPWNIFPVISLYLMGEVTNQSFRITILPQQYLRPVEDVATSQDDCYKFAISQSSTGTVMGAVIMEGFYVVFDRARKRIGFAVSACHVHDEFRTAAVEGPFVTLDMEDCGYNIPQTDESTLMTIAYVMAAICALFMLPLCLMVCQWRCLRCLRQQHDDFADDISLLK
T1 sequence (P22303 whole entry): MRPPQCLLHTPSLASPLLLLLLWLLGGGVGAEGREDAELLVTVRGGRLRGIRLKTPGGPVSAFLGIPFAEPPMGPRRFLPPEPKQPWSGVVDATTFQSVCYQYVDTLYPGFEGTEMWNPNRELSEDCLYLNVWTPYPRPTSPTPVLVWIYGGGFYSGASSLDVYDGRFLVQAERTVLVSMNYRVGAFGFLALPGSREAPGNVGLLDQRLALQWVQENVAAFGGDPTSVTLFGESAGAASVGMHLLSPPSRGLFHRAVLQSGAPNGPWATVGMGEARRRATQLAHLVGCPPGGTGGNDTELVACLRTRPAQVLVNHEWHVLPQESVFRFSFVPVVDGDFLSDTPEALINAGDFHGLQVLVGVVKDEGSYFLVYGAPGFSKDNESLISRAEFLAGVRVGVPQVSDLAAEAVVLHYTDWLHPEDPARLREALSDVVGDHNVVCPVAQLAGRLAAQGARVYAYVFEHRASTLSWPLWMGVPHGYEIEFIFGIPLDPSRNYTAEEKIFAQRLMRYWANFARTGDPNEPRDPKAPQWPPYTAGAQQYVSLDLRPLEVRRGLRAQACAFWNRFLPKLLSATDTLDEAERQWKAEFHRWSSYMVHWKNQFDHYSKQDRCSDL
T2 sequence (O42275 whole entry): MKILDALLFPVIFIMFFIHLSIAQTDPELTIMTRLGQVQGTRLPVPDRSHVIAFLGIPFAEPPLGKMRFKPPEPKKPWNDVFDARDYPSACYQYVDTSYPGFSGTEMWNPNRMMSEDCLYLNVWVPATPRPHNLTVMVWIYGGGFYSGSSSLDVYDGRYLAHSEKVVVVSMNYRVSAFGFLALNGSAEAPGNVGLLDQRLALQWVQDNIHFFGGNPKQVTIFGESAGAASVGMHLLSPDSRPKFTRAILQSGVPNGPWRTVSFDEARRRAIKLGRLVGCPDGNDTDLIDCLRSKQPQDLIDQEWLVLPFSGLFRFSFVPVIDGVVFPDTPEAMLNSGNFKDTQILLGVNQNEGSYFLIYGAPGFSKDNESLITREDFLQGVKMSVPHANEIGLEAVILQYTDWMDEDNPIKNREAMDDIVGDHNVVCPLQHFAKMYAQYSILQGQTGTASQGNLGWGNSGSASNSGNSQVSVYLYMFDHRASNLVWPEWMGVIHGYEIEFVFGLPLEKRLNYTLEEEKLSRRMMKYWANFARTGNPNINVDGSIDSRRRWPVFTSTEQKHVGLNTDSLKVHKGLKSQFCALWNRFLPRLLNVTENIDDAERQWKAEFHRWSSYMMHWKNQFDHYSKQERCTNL
Amyloid-beta precursor protein (Homo sapiens), sequence (P05067 whole entry): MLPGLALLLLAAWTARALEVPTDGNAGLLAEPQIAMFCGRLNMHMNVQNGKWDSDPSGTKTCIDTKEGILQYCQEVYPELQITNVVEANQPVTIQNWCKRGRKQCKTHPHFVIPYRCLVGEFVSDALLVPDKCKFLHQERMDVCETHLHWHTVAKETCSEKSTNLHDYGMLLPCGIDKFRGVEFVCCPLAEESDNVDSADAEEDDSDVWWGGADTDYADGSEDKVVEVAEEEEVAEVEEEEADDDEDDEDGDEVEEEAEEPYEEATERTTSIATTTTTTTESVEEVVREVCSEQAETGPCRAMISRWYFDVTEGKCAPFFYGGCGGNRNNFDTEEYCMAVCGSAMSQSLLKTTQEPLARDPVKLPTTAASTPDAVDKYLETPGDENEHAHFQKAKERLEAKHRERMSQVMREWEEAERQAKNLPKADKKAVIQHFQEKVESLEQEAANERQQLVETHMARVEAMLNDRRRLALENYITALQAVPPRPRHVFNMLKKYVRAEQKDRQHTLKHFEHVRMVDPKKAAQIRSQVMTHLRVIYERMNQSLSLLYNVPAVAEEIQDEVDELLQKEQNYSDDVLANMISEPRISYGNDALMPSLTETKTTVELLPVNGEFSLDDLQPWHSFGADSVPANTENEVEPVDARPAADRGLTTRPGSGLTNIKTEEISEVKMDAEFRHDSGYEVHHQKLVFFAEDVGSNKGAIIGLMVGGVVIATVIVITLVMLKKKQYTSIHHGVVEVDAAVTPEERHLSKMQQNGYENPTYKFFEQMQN
Cholinesterase, sequence (P81908 whole entry): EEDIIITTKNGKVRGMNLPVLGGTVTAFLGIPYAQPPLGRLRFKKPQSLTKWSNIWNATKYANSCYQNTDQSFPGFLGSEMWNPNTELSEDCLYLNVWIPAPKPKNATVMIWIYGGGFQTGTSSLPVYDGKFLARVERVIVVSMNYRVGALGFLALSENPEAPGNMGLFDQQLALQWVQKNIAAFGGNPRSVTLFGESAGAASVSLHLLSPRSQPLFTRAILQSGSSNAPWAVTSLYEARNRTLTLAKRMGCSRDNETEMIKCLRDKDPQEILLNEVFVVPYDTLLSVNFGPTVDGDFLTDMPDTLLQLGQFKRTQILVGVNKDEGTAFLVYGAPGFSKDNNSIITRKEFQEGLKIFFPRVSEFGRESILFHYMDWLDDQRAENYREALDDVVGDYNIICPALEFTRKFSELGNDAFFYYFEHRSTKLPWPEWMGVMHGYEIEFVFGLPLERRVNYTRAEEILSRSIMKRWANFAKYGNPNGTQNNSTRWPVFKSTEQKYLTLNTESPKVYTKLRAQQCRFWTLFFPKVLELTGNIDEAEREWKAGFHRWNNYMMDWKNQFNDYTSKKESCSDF
cGMP-dependent 3',5'-cyclic phosphodiesterase, sequence (O00408 whole entry): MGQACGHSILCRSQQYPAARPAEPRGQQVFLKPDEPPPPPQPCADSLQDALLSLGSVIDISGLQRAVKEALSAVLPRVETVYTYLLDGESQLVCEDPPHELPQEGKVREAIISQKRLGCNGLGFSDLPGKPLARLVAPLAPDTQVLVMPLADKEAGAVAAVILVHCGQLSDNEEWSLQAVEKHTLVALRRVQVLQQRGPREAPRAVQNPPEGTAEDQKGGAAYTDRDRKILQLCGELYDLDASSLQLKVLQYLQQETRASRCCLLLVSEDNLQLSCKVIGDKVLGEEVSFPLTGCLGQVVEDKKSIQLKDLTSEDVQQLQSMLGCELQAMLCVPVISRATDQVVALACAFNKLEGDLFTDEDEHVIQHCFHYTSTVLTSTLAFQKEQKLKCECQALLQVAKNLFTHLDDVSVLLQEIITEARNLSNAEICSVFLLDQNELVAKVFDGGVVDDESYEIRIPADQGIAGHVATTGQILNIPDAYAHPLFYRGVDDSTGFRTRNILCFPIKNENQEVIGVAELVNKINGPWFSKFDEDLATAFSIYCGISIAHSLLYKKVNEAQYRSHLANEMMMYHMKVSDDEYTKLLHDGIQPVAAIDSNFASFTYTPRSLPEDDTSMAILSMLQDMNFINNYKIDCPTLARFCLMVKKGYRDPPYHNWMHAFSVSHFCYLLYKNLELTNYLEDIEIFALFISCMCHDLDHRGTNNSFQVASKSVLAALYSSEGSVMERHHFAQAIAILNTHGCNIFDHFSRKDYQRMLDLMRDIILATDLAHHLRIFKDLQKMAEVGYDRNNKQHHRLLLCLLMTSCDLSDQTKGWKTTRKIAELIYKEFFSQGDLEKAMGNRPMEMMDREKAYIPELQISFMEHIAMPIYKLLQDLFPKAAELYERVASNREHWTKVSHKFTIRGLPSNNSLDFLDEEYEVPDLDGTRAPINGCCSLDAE
Butyrylcholinesterase, sequence (Q9JKC1 whole entry): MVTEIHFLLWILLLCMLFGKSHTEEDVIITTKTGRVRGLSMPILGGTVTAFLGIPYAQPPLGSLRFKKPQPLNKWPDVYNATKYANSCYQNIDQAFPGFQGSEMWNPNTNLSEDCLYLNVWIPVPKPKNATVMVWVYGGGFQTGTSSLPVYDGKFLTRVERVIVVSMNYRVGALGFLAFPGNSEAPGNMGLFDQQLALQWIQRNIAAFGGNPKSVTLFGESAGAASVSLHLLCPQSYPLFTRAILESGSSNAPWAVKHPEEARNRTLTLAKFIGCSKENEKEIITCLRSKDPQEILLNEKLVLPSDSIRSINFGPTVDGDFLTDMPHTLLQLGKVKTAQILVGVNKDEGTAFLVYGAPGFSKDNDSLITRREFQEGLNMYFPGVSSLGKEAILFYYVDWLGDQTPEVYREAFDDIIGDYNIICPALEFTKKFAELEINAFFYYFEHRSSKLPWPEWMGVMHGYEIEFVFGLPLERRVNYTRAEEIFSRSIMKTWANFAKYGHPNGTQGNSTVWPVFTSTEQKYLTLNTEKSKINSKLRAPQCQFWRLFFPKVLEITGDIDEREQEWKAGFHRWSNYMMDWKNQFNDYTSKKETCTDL

For `Cc1ccc2[nH]c3c(c2c1)CN(CCCCCN1CCc2[nH]c4ccc(C)cc4c2C1)CC3`, the pIC50 is 4.96 in data set [1] and 6.71 against Acetylcholinesterase [2]. The same molecule had an inhibition in data set [3] of 67%.
In [4], `CC12CC3CC(C)(C1)CC(N)(C3)C2` [MEMANTINE] gave a bioavailability of 100%. In addition, in data set [5], the half-life was in the range of 60 to 100 h. Moreover, the dose excreted in data set [6] was 48%.
`Cc1cc(=O)oc2cc(OCCN3CCN(CC(=O)Nc4c5c(nc6ccccc46)CCCC5)CC3)ccc12` had a pIC50 at Acetylcholinesterase [7] of 4.04.
`CN1CC(=O)N2[C@H](c3ccc4c(c3)OCO4)c3[nH]c4ccccc4c3C[C@@H]2C1=O`: the pIC50 on Acetylcholinesterase [8] was 4.58.
`COc1ccc(CNC(=O)C2CCN(C(=O)c3ccccc3)CC2)cc1OC`: the pIC50 was 8.39 on Acetylcholinesterase [9] and 7.74 at Beta-secretase 1 [10].
For `CCN1CCc2c(c3ccccc3n2CCC(=O)N2c3ccccc3Sc3ccccc32)C1`, the values for the pIC50 (against Cholinesterase; in data set [11]; in data set [12]) were 6.28, 4.84 and 4.87, respectively.
For the molecule `C#CCN(C)Cc1cc2cc(OCCCC3CCN(Cc4ccccc4)CC3)ccc2n1C`, the negative-log IC50 (pIC50) on Acetylcholinesterase [2] was 6.46. Besides, the inhibition in data set [13] is 47.8%.
At Beta-secretase 1 [14], `COc1cc(/C=C/C(O)=C/C(=O)/C=C/c2ccc(OCc3ccccc3)cc2)ccc1O` showed a pIC50 of 5.60.
`C#CCN(C)Cc1ccc(O)c2ncccc12`: the pIC50 is 4.24 in data set [15]; 5.82 in data set [16]; 5.74 on Acetylcholinesterase [17]; 5.80 against Beta-secretase 1 [18]; 5.21 in data set [19]; 4.99 in data set [20].
For `COc1ccc2[nH]c3nc4c(c(N)c3c2c1)CCCC4`, the pIC50 in [19] was 6.31; in data set [20], 4.27; on Acetylcholinesterase [21] it was 5.82; at Beta-secretase 1 [22], 5.62; in the data set on CHO-K1, 5.26; in the data set on HepG2, 5.91.
For `O=C1[C@H]2Cc3c([nH]c4ccccc34)[C@@H](c3ccc4c(c3)OCO4)N2C(=O)CN1CCC1CCN(Cc2ccccc2)CC1`, the pIC50 is 7.49 at Acetylcholinesterase [8]; 5.41 against Butyrylcholinesterase; 5.82 in data set [23]; below 4.00 in data set [24]; below 4.00 in [25]; below 4.00 in data set [26]. The pIC50 in [27], in data set [28] and in data set [29] was below 4.00 throughout.
Turning to `COc1ccc(/C=C2\COc3cc(OCCCN4CCCCC4)ccc3C2=O)cc1`, the pIC50 on Acetylcholinesterase [30] is 5.40.
Consider `OC(CNCc1cccc(OCc2ccccc2)c1)Cn1cc(Br)c2cc(Br)ccc21` (stereo not given), for which the pIC50 on Acetylcholinesterase [2] was 5.04; against Beta-secretase 1 [14] it was 6.01.
